The results in this text go back to patent US10344060B2 (priority 2013, dated 2019).

One assay addresses hNav1.7 (Homo sapiens, UniProt Q15858). Kind of assay: cell-based. It is filed as cell-based. The conditions noted are these: read-out: PX hNav1.7 Tonic IC50.
The next assay has as its target mouse Nav1.4 (Mus musculus, UniProt Q9ER60). Description: cell-based. Conditions: PatchXpress, tonic block, mouse Nav1.4; read-out: PX mNav1.4 Tonic IC50.
For another assay, the target named is mNav1.7 (Mus musculus, UniProt Q62205). Kind of assay: cell-based.
In a further assay the target is rNav1.7 (Rattus norvegicus, UniProt O08562). Kind of assay: cell-based.
A further assay deals with hNav1.5 (Homo sapiens, UniProt Q14524). Kind of assay: cell-based. The conditions noted are these: for Nav1.5/Nav1.7: ratio of PX tonic IC50 values.
Another assay addresses hNav1.6 (Homo sapiens, UniProt Q9UQD0). Description: cell-based. It is filed as cell-based. The conditions noted are these: Table 15; for Nav1.6/Nav1.7: ratio of PX tonic IC50 values; for IC50: read-out: PX hNav1.6 Tonic IC50.
A further assay has as its target hNav1.4 (Homo sapiens, UniProt P35499). Kind of assay: cell-based. It is filed as cell-based. The conditions noted are these: for IC50: PatchXpress, tonic block, read-out: PX hNav1.4 Tonic IC50; for Nav1.4/Nav1.7: ratio of PX tonic IC50 values.
Assay [1] has as its system TTX-sensitive Nav channels in mouse DRG neuron. The conditions noted are these: for block of TTX-sensitive Nav current: C57 Black 6 mouse DRG neuron.
Setting [2] is: PatchXpress, tonic block, human Nav1.7.
The mark [3] stands for this setting: Table 12, PatchXpress, tonic block.

The IC50 is the concentration that gives 50% inhibition.

“And” between values parts separate entries of the source, which are not always exact repeats. Equal values may be shown once. Read-outs that look alike come from different tables or passages of the source. Some results are limits rather than exact numbers.

Sequence of hNav1.7 (Q15858 whole entry): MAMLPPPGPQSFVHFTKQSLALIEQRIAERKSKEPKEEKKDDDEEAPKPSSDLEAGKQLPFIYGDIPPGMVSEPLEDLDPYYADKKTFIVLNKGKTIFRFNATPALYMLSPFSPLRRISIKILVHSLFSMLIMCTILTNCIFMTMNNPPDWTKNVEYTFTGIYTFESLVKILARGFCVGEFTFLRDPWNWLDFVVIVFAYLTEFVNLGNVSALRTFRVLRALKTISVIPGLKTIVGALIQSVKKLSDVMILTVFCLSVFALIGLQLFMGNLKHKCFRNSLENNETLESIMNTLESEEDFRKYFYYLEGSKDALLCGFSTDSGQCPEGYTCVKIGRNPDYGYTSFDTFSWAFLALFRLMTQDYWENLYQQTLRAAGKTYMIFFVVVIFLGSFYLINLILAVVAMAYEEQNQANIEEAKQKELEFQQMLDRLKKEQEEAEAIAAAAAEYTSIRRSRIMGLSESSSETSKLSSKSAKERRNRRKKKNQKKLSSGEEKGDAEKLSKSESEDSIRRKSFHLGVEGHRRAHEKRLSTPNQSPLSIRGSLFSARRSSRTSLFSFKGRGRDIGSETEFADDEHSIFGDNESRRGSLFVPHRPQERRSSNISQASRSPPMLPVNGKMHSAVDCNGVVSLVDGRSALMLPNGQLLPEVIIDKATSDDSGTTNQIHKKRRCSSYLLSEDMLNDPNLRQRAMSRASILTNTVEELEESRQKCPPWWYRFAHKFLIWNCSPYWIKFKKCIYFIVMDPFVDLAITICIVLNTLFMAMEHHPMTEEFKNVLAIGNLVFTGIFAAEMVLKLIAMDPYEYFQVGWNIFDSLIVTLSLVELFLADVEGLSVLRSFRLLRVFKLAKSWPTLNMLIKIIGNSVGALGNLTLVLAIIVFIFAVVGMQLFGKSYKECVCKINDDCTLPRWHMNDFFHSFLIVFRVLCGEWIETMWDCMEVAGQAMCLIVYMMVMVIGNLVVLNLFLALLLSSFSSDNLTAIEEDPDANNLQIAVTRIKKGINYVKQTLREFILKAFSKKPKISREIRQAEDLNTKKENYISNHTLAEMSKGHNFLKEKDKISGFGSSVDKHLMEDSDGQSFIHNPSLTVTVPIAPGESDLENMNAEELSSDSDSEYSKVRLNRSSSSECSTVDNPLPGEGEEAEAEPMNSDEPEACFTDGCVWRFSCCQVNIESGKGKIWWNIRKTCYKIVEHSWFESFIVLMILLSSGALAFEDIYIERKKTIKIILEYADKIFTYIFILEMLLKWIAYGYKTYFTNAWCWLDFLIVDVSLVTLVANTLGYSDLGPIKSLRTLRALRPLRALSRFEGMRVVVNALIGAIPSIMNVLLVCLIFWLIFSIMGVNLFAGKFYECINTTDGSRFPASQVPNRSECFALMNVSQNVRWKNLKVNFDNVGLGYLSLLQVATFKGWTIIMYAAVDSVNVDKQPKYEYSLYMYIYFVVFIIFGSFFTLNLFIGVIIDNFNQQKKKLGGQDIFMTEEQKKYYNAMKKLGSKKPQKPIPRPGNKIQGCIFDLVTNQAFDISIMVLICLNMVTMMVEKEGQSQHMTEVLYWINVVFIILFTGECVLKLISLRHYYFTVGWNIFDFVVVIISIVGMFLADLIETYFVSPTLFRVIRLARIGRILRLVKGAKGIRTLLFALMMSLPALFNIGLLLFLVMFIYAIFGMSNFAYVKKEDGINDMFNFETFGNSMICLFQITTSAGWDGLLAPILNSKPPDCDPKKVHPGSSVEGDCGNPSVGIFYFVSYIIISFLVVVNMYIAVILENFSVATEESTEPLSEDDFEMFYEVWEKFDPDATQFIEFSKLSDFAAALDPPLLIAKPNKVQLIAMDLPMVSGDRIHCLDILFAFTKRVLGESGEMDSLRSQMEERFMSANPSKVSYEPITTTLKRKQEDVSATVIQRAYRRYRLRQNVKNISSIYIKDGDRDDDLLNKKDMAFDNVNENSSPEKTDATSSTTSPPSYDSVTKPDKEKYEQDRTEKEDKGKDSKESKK
Sequence of hNav1.4 (P35499 whole entry): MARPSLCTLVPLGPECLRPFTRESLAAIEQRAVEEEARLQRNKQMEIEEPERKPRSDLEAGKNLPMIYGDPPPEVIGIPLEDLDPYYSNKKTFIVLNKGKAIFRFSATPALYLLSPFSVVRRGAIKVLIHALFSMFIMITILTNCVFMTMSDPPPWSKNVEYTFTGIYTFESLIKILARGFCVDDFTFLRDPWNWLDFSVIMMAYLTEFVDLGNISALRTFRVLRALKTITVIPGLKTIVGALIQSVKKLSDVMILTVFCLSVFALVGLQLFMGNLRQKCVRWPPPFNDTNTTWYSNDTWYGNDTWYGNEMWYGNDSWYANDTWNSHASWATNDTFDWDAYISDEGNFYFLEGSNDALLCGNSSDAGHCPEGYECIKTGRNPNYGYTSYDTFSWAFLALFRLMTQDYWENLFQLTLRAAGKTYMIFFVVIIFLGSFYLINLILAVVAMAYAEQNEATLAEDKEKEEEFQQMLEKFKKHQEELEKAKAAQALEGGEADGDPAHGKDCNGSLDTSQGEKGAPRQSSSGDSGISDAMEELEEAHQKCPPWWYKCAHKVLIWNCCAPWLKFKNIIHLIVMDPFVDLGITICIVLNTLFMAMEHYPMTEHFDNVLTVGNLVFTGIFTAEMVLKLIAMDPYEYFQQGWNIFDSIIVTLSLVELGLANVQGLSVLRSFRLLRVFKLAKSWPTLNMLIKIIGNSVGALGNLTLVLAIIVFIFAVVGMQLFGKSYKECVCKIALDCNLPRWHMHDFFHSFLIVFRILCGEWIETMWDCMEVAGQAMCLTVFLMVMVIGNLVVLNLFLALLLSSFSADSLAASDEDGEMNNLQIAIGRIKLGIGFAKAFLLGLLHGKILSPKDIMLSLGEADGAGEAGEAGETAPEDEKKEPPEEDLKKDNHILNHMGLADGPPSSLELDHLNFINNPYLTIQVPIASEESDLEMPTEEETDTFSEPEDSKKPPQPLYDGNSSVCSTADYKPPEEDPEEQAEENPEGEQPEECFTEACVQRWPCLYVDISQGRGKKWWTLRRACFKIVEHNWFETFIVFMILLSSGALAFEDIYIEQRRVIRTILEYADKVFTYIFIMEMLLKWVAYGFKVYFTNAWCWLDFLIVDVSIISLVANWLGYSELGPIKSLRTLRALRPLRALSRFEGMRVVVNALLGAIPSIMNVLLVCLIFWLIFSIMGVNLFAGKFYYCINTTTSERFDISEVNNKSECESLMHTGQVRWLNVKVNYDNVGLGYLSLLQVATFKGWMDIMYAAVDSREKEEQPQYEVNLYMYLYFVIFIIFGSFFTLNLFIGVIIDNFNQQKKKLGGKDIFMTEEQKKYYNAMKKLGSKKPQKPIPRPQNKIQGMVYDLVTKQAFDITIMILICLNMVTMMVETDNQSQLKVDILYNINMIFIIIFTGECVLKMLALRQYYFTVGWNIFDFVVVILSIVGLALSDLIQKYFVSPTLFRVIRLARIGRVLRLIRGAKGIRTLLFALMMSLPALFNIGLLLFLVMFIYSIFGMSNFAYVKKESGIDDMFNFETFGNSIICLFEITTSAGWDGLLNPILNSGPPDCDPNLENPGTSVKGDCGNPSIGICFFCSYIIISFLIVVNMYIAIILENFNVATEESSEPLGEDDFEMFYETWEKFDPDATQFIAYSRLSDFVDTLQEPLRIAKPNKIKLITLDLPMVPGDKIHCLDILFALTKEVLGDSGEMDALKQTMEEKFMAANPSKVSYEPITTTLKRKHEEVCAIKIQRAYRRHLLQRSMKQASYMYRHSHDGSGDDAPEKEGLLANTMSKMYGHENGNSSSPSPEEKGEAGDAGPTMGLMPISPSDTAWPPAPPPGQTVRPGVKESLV

Turning to `CCCC[C@@H]1NC(=O)[C@H](Cc2c[nH]c3ccccc23)NC(=O)[C@H](CCCCN)NC(=O)[C@H](CCC(N)=O)NC(=O)[C@@H](NC(=O)[C@H](Cc2ccc(O)cc2)NC(=O)[C@@H](N)CCC)CSSC[C@@H]2NC(=O)[C@@H]3CSSC[C@@H](C(=O)N[C@@H](CCCNC(=N)N)C(=O)N[C@@H](CCCCN)C(=O)N[C@H](C(=O)N[C@H](C(N)=O)[C@@H](C)CC)[C@@H](C)CC)NC(=O)[C@H](Cc4c[nH]c5ccccc45)NC(=O)[C@H](CC(C)C)NC(=O)[C@H](CCCCN)NC(=O)[C@H](CSSC[C@H](NC(=O)[C@H]([C@@H](C)O)NC(=O)[C@H](Cc4c[nH]c5ccccc45)NC1=O)C(=O)N[C@@H](CC(=O)O)C(=O)N[C@@H](CO)C(=O)N[C@@H](CCCCN)C(=O)N[C@@H](CCCNC(=N)N)C(=O)N[C@@H](C)C(=O)N3)NC(=O)[C@H](CCCNC(=N)N)NC(=O)[C@H](CC(C)C)NC(=O)CNC(=O)[C@H](CCC(=O)O)NC2=O` [Nva-[Nle6]JzTx-V(1-29)], the 50% inhibitory concentration (IC50) at hNav1.7 (setting [2]) is 0.82 nM; on mouse Nav1.4, 4.54 nM.
Turning to `C#CC[C@@H]1NC(=O)[C@H](CC(=O)O)NC(=O)[C@@H]2CSSC[C@@H]3NC(=O)[C@H](CCCNC(=N)N)NC(=O)[C@H](CC(C)C)NC(=O)CNC(=O)[C@H](CCC(=O)O)NC(=O)[C@H](CSSC[C@H](NC(=O)[C@@H](N)Cc4ccc(O)cc4)C(=O)N[C@@H](CCC(N)=O)C(=O)N[C@@H](CCCCN)C(=O)N[C@@H](Cc4c[nH]c5ccccc45)C(=O)N[C@@H](CCCC)C(=O)N[C@@H](Cc4c[nH]c5ccccc45)C(=O)N[C@@H]([C@@H](C)O)C(=O)N2)NC(=O)[C@H](CSSC[C@@H](C(=O)N[C@@H](CCCNC(=N)N)C(=O)N[C@@H](CCCCN)C(=O)N[C@@H](CCC(=O)O)C(=O)N[C@H](C(N)=O)[C@@H](C)CC)NC(=O)[C@H](Cc2c[nH]c4ccccc24)NC(=O)[C@H](CC(C)C)NC(=O)[C@H](CCCCN)NC3=O)NC(=O)[C@H](C)NC(=O)[C@H](CCCNC(=N)N)NC(=O)[C@H](CCCCN)NC1=O` [[Nle6; Pra11; Glu28]JzTx-V(1-29)], the IC50 at hNav1.7 (setting [2]) stood at 0.473 nM; on mNav1.7 (PatchXpress, tonic block, mouse Nav1.7, read-out: PX mNav1.7 Tonic IC50) it was 3.69 nM; at rNav1.7 (PatchXpress, tonic block, rat Nav1.7, read-out: PX rNav1.7 Tonic IC50), 3.83 nM. On mNav1.7 (ratio of PX tonic IC50, mouse Nav1.7 over human Nav1.7), the mNav1.7/hNav1.7 is reported as 7.81. Also, the rNav1.7/hNav1.7 on rNav1.7 (ratio of PX tonic IC50, rat Nav1.7 over human Nav1.7) worked out at 8.10.
In the case of `C#CC[C@H](N)C(=O)NCCCC[C@@H]1NC(=O)[C@H](CCCNC(=N)N)NC(=O)[C@H](CCCCN)NC(=O)[C@H](CO)NC(=O)[C@H](CC(=O)O)NC(=O)[C@@H]2CSSC[C@@H]3NC(=O)[C@H](CCCNC(=N)N)NC(=O)[C@H](CC(C)C)NC(=O)CNC(=O)[C@H](CCC(=O)O)NC(=O)[C@H](CSSC[C@H](NC(=O)[C@H](Cc4ccc(O)cc4)NC(=O)[C@@H](N)CC#N)C(=O)N[C@@H](CCC(N)=O)C(=O)N[C@@H](CCCCN)C(=O)N[C@@H](Cc4c[nH]c5ccccc45)C(=O)N[C@@H](CCCC)C(=O)N[C@@H](Cc4c[nH]c5ccccc45)C(=O)N[C@@H]([C@@H](C)O)C(=O)N2)NC(=O)[C@H](CSSC[C@@H](C(=O)N[C@@H](CCCNC(=N)N)C(=O)N[C@@H](CCCCN)C(=O)N[C@@H](CCC(=O)O)C(=O)N[C@H](C(N)=O)[C@@H](C)CC)NC(=O)[C@H](Cc2c[nH]c4ccccc24)NC(=O)[C@H](CC(C)C)NC(=O)[C@H](CCCCN)NC3=O)NC1=O` [compound 392], the IC50 at hNav1.7 (Table 15) was 1.59 nM; on hNav1.6, 250 nM; on hNav1.4 (Table 12), 110 nM; in assay [1] it was 46.6 nM. At hNav1.5 (Table 12), the Nav1.5/Nav1.7 is 659 and 615 and 841. At hNav1.6, the Nav1.6/Nav1.7 is listed as 157. Further, the “fold less potent than JzTx-V in inhibition of TTX-sensitive current” value in assay [1] was “about 3 fold”.
For `CCCC[C@@H]1NC(=O)[C@H](Cc2c[nH]c3ccccc23)NC(=O)[C@H](CCCCN)NC(=O)[C@H](CCC(N)=O)NC(=O)[C@@H](NC(=O)[C@H](Cc2ccc(O)cc2)NC(=O)[C@@H](N)CC#N)CSSC[C@@H]2NC(=O)[C@@H]3CSSC[C@@H](C(=O)N[C@@H](CCCNC(=N)N)C(=O)N[C@@H](CCCCN)C(=O)N[C@@H](CCC(=O)O)C(=O)N[C@H](C(N)=O)[C@@H](C)CC)NC(=O)[C@H](Cc4c[nH]c5ccccc45)NC(=O)[C@H](CC(C)C)NC(=O)[C@H](CCCCN)NC(=O)[C@H](CSSC[C@H](NC(=O)[C@H]([C@@H](C)O)NC(=O)[C@H](Cc4c[nH]c5ccccc45)NC1=O)C(=O)N[C@@H](CC(=O)O)C(=O)N[C@@H](CO)C(=O)N[C@@H](CCCCN)C(=O)N[C@@H](CCCNC(=N)N)C(=O)N[C@@H](C)C(=O)N3)NC(=O)[C@H](CCCNC(=N)N)NC(=O)[C@H](CC(C)C)NC(=O)CNC(=O)[C@H](Cc1cn(CCCOCCOCCOCCOCCOCCOCCOCCOCCOCCOCCN)nn1)NC2=O` [compound 443], at hNav1.5 (Table 13), the Nav1.5/Nav1.7 is 236. Further, on hNav1.4 (Table 13), the Nav1.4/Nav1.7 is recorded as 31. Half-maximal inhibition in assay [1] (IC50) was put at 35.2 nM. The “block of TTX-sensitive Nav current” value in assay [1] (300 nM) is “over 75%”.
As to `C#CC[C@H](N)C(=O)N[C@@H](Cc1ccc(O)cc1)C(=O)N[C@H]1CSSC[C@@H]2NC(=O)[C@@H]3CSSC[C@@H](C(=O)N[C@@H](CCCNC(=N)N)C(=O)N[C@@H](CCCCN)C(=O)N[C@@H](CCC(=O)O)C(=O)N[C@H](C(N)=O)[C@@H](C)CC)NC(=O)[C@H](Cc4c[nH]c5ccccc45)NC(=O)[C@H](CC(C)C)NC(=O)[C@H](CCCCN)NC(=O)[C@H](CSSC[C@H](NC(=O)[C@H]([C@@H](C)O)NC(=O)[C@H](Cc4c[nH]c5ccccc45)NC(=O)[C@H](CCCC)NC(=O)[C@H](Cc4c[nH]c5ccccc45)NC(=O)[C@H](CCCCN)NC(=O)[C@H](CCC(N)=O)NC1=O)C(=O)N[C@@H](CC(=O)O)C(=O)N[C@@H](CO)C(=O)N[C@@H](CCC(=O)O)C(=O)N[C@@H](CCCNC(=N)N)C(=O)N[C@@H](C)C(=O)N3)NC(=O)[C@H](CCCNC(=N)N)NC(=O)[C@H](CC(C)C)NC(=O)CNC(=O)[C@H](CCC(=O)O)NC2=O` [compound 715], the concentration for half-maximal inhibition (IC50) was 1.73 nM at hNav1.7 (setting [3]); > 10000 nM at hNav1.5 (Table 12, PatchXpress, tonic block, read-out: PX hNav1.5 Tonic IC50); 877 nM on hNav1.6; 811 nM on hNav1.4 (Table 12); 144 nM in assay [1]. Further, on hNav1.5 (Table 12), the Nav1.5/Nav1.7 is given as >5794. For the same molecule, at hNav1.6, the Nav1.6/Nav1.7 stood at 508. Further, the Nav1.4/Nav1.7 at hNav1.4 (Table 12) amounted to 470. Further, in assay [1] (1000 nM), the “block of TTX-sensitive Nav current” value is recorded as “approximately 90%”.
Consider `C#CC[C@H](N)C(=O)N[C@@H](Cc1ccc(O)cc1)C(=O)N[C@H]1CSSC[C@@H]2NC(=O)[C@@H]3CSSC[C@@H](C(=O)N[C@@H](CCCNC(=N)N)C(=O)N[C@@H](CCCCN)C(=O)N[C@@H](CCC(=O)O)C(=O)N[C@H](C(N)=O)[C@@H](C)CC)NC(=O)[C@H](Cc4c[nH]c5ccccc45)NC(=O)[C@H](CC(C)C)NC(=O)[C@H](CCCCN)NC(=O)[C@H](CSSC[C@H](NC(=O)[C@H]([C@@H](C)O)NC(=O)[C@H](Cc4c[nH]c5ccccc45)NC(=O)[C@H](CCCC)NC(=O)[C@H](Cc4c[nH]c5ccccc45)NC(=O)[C@H](CCCCN)NC(=O)[C@H](CCC(N)=O)NC1=O)C(=O)N[C@@H](CC(=O)O)C(=O)N[C@@H](CO)C(=O)N[C@@H](CCCCN)C(=O)N[C@@H](CCCNC(=N)N)C(=O)N[C@@H](CCC(=O)O)C(=O)N3)NC(=O)[C@H](CCCNC(=N)N)NC(=O)[C@H](CC(C)C)NC(=O)CNC(=O)[C@H](CCC(=O)O)NC2=O` [compound 717], for which the IC50 on hNav1.7 (setting [3]) was 0.975 nM; at hNav1.6 it was 2490 nM; at hNav1.4 (Table 12) it was 325 nM; in assay [1] it was 99.8 nM. Besides, the Nav1.6/Nav1.7 at hNav1.6 came to 2558. For the same molecule, the Nav1.4/Nav1.7 at hNav1.4 (Table 12) is 333. Besides, the “block of TTX-sensitive Nav current” value in assay [1] (1000 nM) was “approximately 90%”.
